Measurements as given in ChEMBL document CHEMBL1201861, “Genomics of Drug Sensitity in Cancer screening data, Wellcome Trust Sanger Institute”.

Legend:
JIYOYE = assay: cells; assay type: functional, cell-based, Homo sapiens; settings: Homo sapiens, JIYOYE
Description: SANGER: Inhibition of human JiyoyeP-2003 cell growth in a cell viability assay.

NCI-H889 = assay: cells; assay type: functional, cell-based, Homo sapiens; settings: Homo sapiens, NCI-H889;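 further: cell growth inhibition of the cell line, read out with a viability assay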
Description: SANGER: Inhibition of human NCI-H889 cell growth in a cell viability assay.

ST486 = assay: SANGER: Inhibition of human ST486 cell growth in a cell viability assay.; assay type: functional, cell-based; settings: Homo sapiens, ST486
NB14 = assay: cells; assay type: functional, cell-based, Homo sapiens; settings: Homo sapiens, NB14;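 further: growth inhibition of NB14 cells measured with a cell viability assay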
Description: SANGER: Inhibition of human NB14 cell growth in a cell viability assay.

COR-L279 = assay: SANGER: Inhibition of human COR-L279 cell growth in a cell viability assay.; assay type: functional, cell-based; settings: Homo sapiens, COR-L279
NCI-H322M = assay: cells; assay type: functional, cell-based, Homo sapiens; settings: Homo sapiens, NCI-H322M;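 further: cell viability assay measuring inhibition of growth of human NCI-H322M cells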
Description: SANGER: Inhibition of human NCI-H322M cell growth in a cell viability assay.

SNU-C1 = assay: cells; assay type: functional, cell-based, Homo sapiens; settings: Homo sapiens, SNU-C1;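 further: growth inhibition of SNU-C1 human cells, read out by a cell viability assay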
Description: SANGER: Inhibition of human SNU-C1 cell growth in a cell viability assay.

MRK-nu-1 = assay: cells; assay type: functional, cell-based, Homo sapiens; settings: Homo sapiens, MRK-nu-1;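 further: cell viability assay measuring growth suppression of human MRK-nu-1 cells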
Description: SANGER: Inhibition of human MRK-nu-1 cell growth in a cell viability assay.

D-336MG = assay: cells; assay type: functional, cell-based, Homo sapiens; settings: Homo sapiens, D-336MG
Description: SANGER: Inhibition of human D-336MG cell growth in a cell viability assay.

LB647-SCLC = assay: cells; assay type: functional, cell-based, Homo sapiens; settings: Homo sapiens, LB647-SCLC;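 further: cell growth inhibition, read out by a viability assay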
Description: SANGER: Inhibition of human LB647-SCLC cell growth in a cell viability assay.

NALM-6 = assay: cells; assay type: functional, cell-based, Homo sapiens; settings: Homo sapiens, NALM-6;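 further: growth inhibition of NALM-6 cells, read out with a cell viability assay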
Description: SANGER: Inhibition of human NALM-6 cell growth in a cell viability assay.

ARH-77 = assay: cells; assay type: functional, cell-based, Homo sapiens; settings: Homo sapiens, ARH-77;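 further: growth inhibition of ARH-77 cells, read out by a cell viability assay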
Description: SANGER: Inhibition of human ARH-77 cell growth in a cell viability assay.

MHH-CALL-2 = assay: cells; assay type: functional, cell-based, Homo sapiens; settings: Homo sapiens, MHH-CALL-2;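 further: growth inhibition of the cell line, read out in a cell viability assay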
Description: SANGER: Inhibition of human MHH-CALL-2 cell growth in a cell viability assay.

TCC-SUP = assay: cells; assay type: functional, cell-based, Homo sapiens; settings: Homo sapiens, TCC-SUP;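 further: growth inhibition of TCC-SUP cells, read out with a cell viability assay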
Description: SANGER: Inhibition of human TCCSUP cell growth in a cell viability assay.

SW1710 = assay: cells; assay type: functional, cell-based, Homo sapiens; settings: Homo sapiens, SW1710;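 further: growth inhibition of SW1710 cells, determined with a cell viability assay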
Description: SANGER: Inhibition of human SW1710 cell growth in a cell viability assay.

KU-19-19 = assay: cells; assay type: functional, cell-based, Homo sapiens; settings: Homo sapiens, KU-19-19
Description: SANGER: Inhibition of human KU-19-19 cell growth in a cell viability assay.

NCI-H1623 = assay: cells; assay type: functional, cell-based, Homo sapiens; settings: Homo sapiens, NCI-H1623;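 further: cell viability assay used as the read-out for growth inhibition of NCI-H1623 cells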
Description: SANGER: Inhibition of human NCI-H1623 cell growth in a cell viability assay.

23132-87 = assay: cells; assay type: functional, cell-based, Homo sapiens; settings: Homo sapiens
Description: SANGER: Inhibition of human 23132-87 cell growth in a cell viability assay.

NCI-H650 = assay: cells; assay type: functional, cell-based, Homo sapiens; settings: Homo sapiens, NCI-H650;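 further: growth inhibition of NCI-H650 cells, read out by a viability assay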
Description: SANGER: Inhibition of human NCI-H650 cell growth in a cell viability assay.

OE19 = assay: cells; assay type: functional, cell-based, Homo sapiens; settings: Homo sapiens, OE19;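 further: growth inhibition of OE19 cells, measured through a cell viability read-out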
Description: SANGER: Inhibition of human OE19 cell growth in a cell viability assay.

J82 = assay: cells; assay type: functional, cell-based, Homo sapiens; settings: Homo sapiens, J82;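 further: growth inhibition of J82 cells, read out with a cell viability assay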
Description: SANGER: Inhibition of human J82 cell growth in a cell viability assay.

T-24 = assay: cells; assay type: functional, cell-based, Homo sapiens; settings: Homo sapiens, T-24;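 further: growth inhibition of T-24 cells, read out with a cell viability assay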
Description: SANGER: Inhibition of human T-24 cell growth in a cell viability assay.

AGS = assay: cells; assay type: functional, cell-based, Homo sapiens; settings: Homo sapiens, AGS;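 further: growth inhibition of AGS cells, determined with a cell viability assay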
Description: SANGER: Inhibition of human AGS cell growth in a cell viability assay.

CAL-120 = assay: cells; assay type: functional, cell-based, Homo sapiens; settings: Homo sapiens, CAL-120;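 further: cell growth inhibition, read out as cell viability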
Description: SANGER: Inhibition of human CAL-120 cell growth in a cell viability assay.

NCI-H441 = assay: cells; assay type: functional, cell-based, Homo sapiens; settings: Homo sapiens, NCI-H441;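 further: growth inhibition of NCI-H441 cells, read out with a cell viability assay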
Description: SANGER: Inhibition of human NCI-H441 cell growth in a cell viability assay.

BT-20 = assay: cells; assay type: functional, cell-based, Homo sapiens; settings: Homo sapiens, BT-20;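 further: cell viability assay measuring suppression of growth in human BT-20 cells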
Description: SANGER: Inhibition of human BT-20 cell growth in a cell viability assay.

BCPAP = assay: cells; assay type: functional, cell-based, Homo sapiens; settings: Homo sapiens, BCPAP;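 further: growth inhibition of BCPAP cells, read out in a cell viability assay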
Description: SANGER: Inhibition of human BCPAP cell growth in a cell viability assay.

SiHa = assay: cells; assay type: functional, cell-based, Homo sapiens; settings: Homo sapiens, SiHa;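 further: Viability-based readout of growth inhibition in SiHa cells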
Description: SANGER: Inhibition of human SiHa cell growth in a cell viability assay.

P12-Ichikawa = assay: cells; assay type: functional, cell-based, Homo sapiens; settings: Homo sapiens, P12-Ichikawa
HCC1419 = assay: cells; assay type: functional, cell-based, Homo sapiens; settings: Homo sapiens, HCC1419;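 further: growth inhibition of human HCC1419 cells, read out as cell viability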
Description: SANGER: Inhibition of human HCC1419 cell growth in a cell viability assay.

8305C = assay: cells; assay type: functional, cell-based, Homo sapiens; settings: Homo sapiens, 8305C
Description: SANGER: Inhibition of human 8305C cell growth in a cell viability assay.

EFO-27 = assay: cells; assay type: functional, cell-based, Homo sapiens; settings: Homo sapiens, EFO-27;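 further: growth inhibition of EFO-27 cells, read out with a cell viability assay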
Description: SANGER: Inhibition of human EFO-27 cell growth in a cell viability assay.

RERF-LC-MS = assay: cells; assay type: functional, cell-based, Homo sapiens; settings: Homo sapiens, RERF-LC-MS;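 further: growth inhibition of human RERF-LC-MS cells, read out by a cell viability assay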
Description: SANGER: Inhibition of human RERF-LC-MS cell growth in a cell viability assay.

SKG-IIIa = assay: cells; assay type: functional, cell-based, Homo sapiens; settings: Homo sapiens, SKG-IIIa;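 further: cell growth inhibition, read out with a cell viability assay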
Description: SANGER: Inhibition of human SKG-IIIa cell growth in a cell viability assay.

SW48 = assay: cells; assay type: functional, cell-based, Homo sapiens; settings: Homo sapiens, SW48;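 further: growth inhibition of SW48 cells, read out with a cell viability assay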
Description: SANGER: Inhibition of human SW48 cell growth in a cell viability assay.

NCI-H2405 = assay: cells; assay type: functional, cell-based, Homo sapiens; settings: Homo sapiens, NCI-H2405;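 further: growth inhibition of the human cell line, read out with a cell viability assay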
Description: SANGER: Inhibition of human NCI-H2405 cell growth in a cell viability assay.

HTC-C3 = assay: cells; assay type: functional, cell-based, Homo sapiens; settings: Homo sapiens, HTC-C3;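 further: inhibition of cell growth, read out with a cell viability assay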
Description: SANGER: Inhibition of human HTC-C3 cell growth in a cell viability assay.

CAPAN-1 = assay: cells; assay type: functional, cell-based, Homo sapiens; settings: Homo sapiens, CAPAN-1;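 further: growth suppression of CAPAN-1 cells, read out by a cell viability assay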
Description: SANGER: Inhibition of human CAPAN-1 cell growth in a cell viability assay.

C3A = assay: cells; assay type: functional, cell-based, Homo sapiens; settings: Homo sapiens, C3A;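 further: growth inhibition of C3A human cells, quantified with a cell viability readout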
Description: SANGER: Inhibition of human C3A cell growth in a cell viability assay.

SW626 = assay: cells; assay type: functional, cell-based, Homo sapiens; settings: Homo sapiens, SW626;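 further: growth inhibition of SW626 cells, measured with a cell viability assay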
Description: SANGER: Inhibition of human SW626 cell growth in a cell viability assay.

5637 = assay: cells; assay type: functional, cell-based, Homo sapiens; settings: Homo sapiens
Description: SANGER: Inhibition of human 5637 cell growth in a cell viability assay.

DMS-273 = assay: cells; assay type: functional, cell-based, Homo sapiens; settings: Homo sapiens, DMS-273
Description: SANGER: Inhibition of human DMS-273 cell growth in a cell viability assay.

NCI-H2452 = assay: cells; assay type: functional, cell-based, Homo sapiens; settings: Homo sapiens, NCI-H2452;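 further: growth inhibition of NCI-H2452 cells, read out with a cell viability assay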
Description: SANGER: Inhibition of human NCI-H2452 cell growth in a cell viability assay.

FaDu = assay: cells; assay type: functional, cell-based, Homo sapiens; settings: Homo sapiens, FaDu;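 further: cell viability readout of growth inhibition in FaDu cells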
Description: SANGER: Inhibition of human FADU cell growth in a cell viability assay.

HCC1395 = assay: cells; assay type: functional, cell-based, Homo sapiens; settings: Homo sapiens, HCC1395;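 further: growth inhibition of HCC1395 cells, read out by a cell viability assay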
Description: SANGER: Inhibition of human HCC1395 cell growth in a cell viability assay.

SW948 = assay: cells; assay type: functional, cell-based, Homo sapiens; settings: Homo sapiens, SW948;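 further: growth inhibition of SW948 cells, read out with a cell viability assay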
Description: SANGER: Inhibition of human SW948 cell growth in a cell viability assay.

CAL-72 = assay: cells; assay type: functional, cell-based, Homo sapiens; settings: Homo sapiens, CAL-72;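 further: cell viability assay measuring inhibition of proliferation in the CAL-72 cell line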
Description: SANGER: Inhibition of human CAL-72 cell growth in a cell viability assay.

RD = assay: cells; assay type: functional, cell-based, Homo sapiens; settings: Homo sapiens, RD
Description: SANGER: Inhibition of human RD cell growth in a cell viability assay.

Question: Which results are given for `COc1cc(N2CCN(C)CC2)ccc1Nc1ncc2c(n1)N(C)c1ccccc1C(=O)N2C`?
Answer: IC50 (JIYOYE): 6.89 µM; IC50 (NCI-H889): > 8 µM; IC50 (ST486): 3.49 µM; IC50 (NB14): > 8 µM; IC50 (COR-L279): 7.99 µM; IC50 (NCI-H322M): > 8 µM; IC50 (SNU-C1): > 8 µM; IC50 (MRK-nu-1): > 8 µM; IC50 (D-336MG): 0.769 µM; IC50 (LB647-SCLC): > 8 µM; IC50 (NALM-6): 4.96 µM; IC50 (ARH-77): > 8 µM; IC50 (MHH-CALL-2): > 8 µM

Question: `COc1cc(-c2nn([C@H]3CC[C@H](N4CCN(C(C)=O)CC4)CC3)c3ncnc(N)c23)ccc1NC(=O)c1cc2ccccc2n1C` was tested. Which IC50 (JIYOYE) did it give?
Answer: The IC50 was 4.21 µM.

Question: What about the IC50 (NCI-H889) of the same compound?
Answer: Its IC50 is greater than 5.12 µM.

Question: And the IC50 (ST486)?
Answer: Its IC50 is greater than 5.12 µM.

Question: And the IC50 (NB14)?
Answer: Its IC50 is greater than 5.12 µM.

Question: What about the IC50 (COR-L279) of the same compound?
Answer: The IC50 was greater than 5.12 µM.

Question: And the IC50 (NCI-H322M)?
Answer: The IC50 was greater than 5.12 µM.

Question: And the IC50 (SNU-C1)?
Answer: Its IC50 is greater than 5.12 µM.

Question: And the IC50 (MRK-nu-1)?
Answer: The IC50 was 2.95 µM.

Question: What about the IC50 (D-336MG) of the same compound?
Answer: The IC50 was 0.212 µM.

Question: And the IC50 (LB647-SCLC)?
Answer: Its IC50 is 4.89 µM.

Question: And the IC50 (NALM-6)?
Answer: Its IC50 is 2.24 µM.

Question: And the IC50 (ARH-77)?
Answer: The IC50 was greater than 5.12 µM.

Question: And the IC50 (MHH-CALL-2)?
Answer: The IC50 was greater than 5.12 µM.

Question: What does the source list for `Cc1cc([N+](=O)[O-])ccc1NS(=O)(=O)c1cc(Cl)ccc1Cl`?
Answer: IC50 (JIYOYE): 6.6 µM; IC50 (TCC-SUP): 4.81 µM; IC50 (SW1710): 2.33 µM; IC50 (KU-19-19): > 32 µM; IC50 (NCI-H889): > 32 µM; IC50 (NCI-H1623): > 32 µM; IC50 (ST486): 4.83 µM; IC50 (23132-87): 3.5 µM; IC50 (NCI-H650): 2.78 µM; IC50 (COR-L279): > 32 µM; IC50 (OE19): 3.78 µM; IC50 (J82): 2.62 µM; IC50 (T-24): > 32 µM; IC50 (AGS): 5.37 µM; IC50 (NCI-H322M): > 32 µM; IC50 (CAL-120): 6.02 µM; IC50 (NCI-H441): 6.75 µM; IC50 (BT-20): 8.51 µM; IC50 (BCPAP): 2.05 µM; IC50 (SNU-C1): > 32 µM; IC50 (SiHa): 19.7 µM; IC50 (P12-Ichikawa): 13.8 µM; IC50 (MRK-nu-1): 2.73 µM; IC50 (HCC1419): 3.89 µM; IC50 (8305C): 3.99 µM; IC50 (EFO-27): 4.83 µM; IC50 (RERF-LC-MS): 1.49 µM; IC50 (SKG-IIIa): > 32 µM; IC50 (SW48): 2.48 µM; IC50 (NCI-H2405): 3.96 µM; IC50 (LB647-SCLC): > 32 µM; IC50 (HTC-C3): 3.03 µM; IC50 (CAPAN-1): 2.4 µM; IC50 (C3A): 2.24 µM; IC50 (NALM-6): 6.28 µM; IC50 (SW626): 3.12 µM; IC50 5637: 7.25 µM; IC50 (DMS-273): 0.719 µM; IC50 (NCI-H2452): > 32 µM; IC50 (ARH-77): > 32 µM; IC50 (FaDu): 4.28 µM; IC50 (HCC1395): 0.381 µM; IC50 (SW948): 12.3 µM; IC50 (MHH-CALL-2): 18.2 µM; IC50 (CAL-72): > 32 µM; IC50 (RD): 7.33 µM

Question: For `OCCCNc1cc(-c2ccnc(Nc3cccc(Cl)c3)n2)ccn1`, which IC50 (JIYOYE) is on record?
Answer: The IC50 was 0.0322 µM.

Question: And the IC50 (NCI-H889)?
Answer: The IC50 was greater than 0.256 µM.

Question: What about the IC50 (ST486) of the same compound?
Answer: Its IC50 is 0.0312 µM.

Question: What about the IC50 (NB14) of the same compound?
Answer: The IC50 was greater than 0.256 µM.

Question: What about the IC50 (COR-L279) of the same compound?
Answer: The IC50 was 0.171 µM.

Question: And the IC50 (NCI-H322M)?
Answer: The IC50 was greater than 0.256 µM.

Question: What about the IC50 (SNU-C1) of the same compound?
Answer: The IC50 was greater than 0.256 µM.

Question: And the IC50 (MRK-nu-1)?
Answer: The IC50 was 0.0373 µM.

Question: And the IC50 (D-336MG)?
Answer: The IC50 was 0.109 µM.

Question: What about the IC50 (LB647-SCLC) of the same compound?
Answer: Its IC50 is greater than 0.256 µM.

Question: And the IC50 (NALM-6)?
Answer: The IC50 was 0.0468 µM.

Question: And the IC50 (ARH-77)?
Answer: Its IC50 is 0.0819 µM.

Question: What about the IC50 (MHH-CALL-2) of the same compound?
Answer: The IC50 was 0.0855 µM.

Question: For `Cc1ccc(-c2c(C(=O)CCl)n(CCCO)c3ncnc(N)c23)cc1`, which IC50 (JIYOYE) is on record?
Answer: Its IC50 is greater than 4 µM.

Question: And the IC50 (NCI-H889)?
Answer: Its IC50 is greater than 4 µM.

Question: And the IC50 (ST486)?
Answer: Its IC50 is greater than 4 µM.

Question: And the IC50 (NB14)?
Answer: The IC50 was greater than 4 µM.

Question: And the IC50 (COR-L279)?
Answer: The IC50 was greater than 4 µM.

Question: And the IC50 (NCI-H322M)?
Answer: The IC50 was greater than 4 µM.

Question: And the IC50 (SNU-C1)?
Answer: Its IC50 is greater than 4 µM.

Question: And the IC50 (MRK-nu-1)?
Answer: Its IC50 is 2.52 µM.

Question: What about the IC50 (D-336MG) of the same compound?
Answer: Its IC50 is greater than 4 µM.

Question: And the IC50 (LB647-SCLC)?
Answer: Its IC50 is greater than 4 µM.

Question: What about the IC50 (NALM-6) of the same compound?
Answer: The IC50 was greater than 4 µM.

Question: And the IC50 (ARH-77)?
Answer: The IC50 was greater than 4 µM.

Question: And the IC50 (MHH-CALL-2)?
Answer: The IC50 was greater than 4 µM.

Question: Which results are given for `C#Cc1cccc(Nc2ncnc3cc(OCCOC)c(OCCOC)cc23)c1` [ERLOTINIB]?
Answer: IC50 (JIYOYE): > 2 µM; IC50 (ST486): > 2 µM; IC50 (NB14): > 2 µM; IC50 (NCI-H322M): > 2 µM; IC50 (SNU-C1): > 2 µM; IC50 (MRK-nu-1): > 2 µM; IC50 (D-336MG): > 2 µM; IC50 (LB647-SCLC): > 2 µM; IC50 (ARH-77): > 2 µM; IC50 (MHH-CALL-2): > 2 µM
